From PubChem BioAssay AID1963448 (Molecular Pharmacology Branch, DTP, NCI, 2024)
Values joined by “and” are separate entries in the source; they are usually repeats but may differ in a detail not shown here. Equal values may be shown once.

Test system: 616215-338-R-J1-PDC complex spheroid growth, % test/control
Test: Anticancer human tumor 616215-338-R-J1-PDC patient-derived colon adenocarcinoma cell line growth inhibition [Asc]
Details: for viability, T/C: stronger effect = lower value
Procedure, shortened: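 Spheroid model: tumor line + HUVEC + hMSC. Single agents and combinations; top conc. at/near clinical Cmax (10 microM if undetermined), half-log dilutions. DMSO stocks at 800-fold test concentration.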
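Note: spheroids exposed to agents for seven days before readout.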
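Throughout, for viability, T/C: 100% = DMSO vehicle control viability.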

C=CC(=O)N1CCN(c2nc(=O)n(-c3c(C)ccnc3C(C)C)c3nc(-c4c(O)cccc4F)c(F)cc23)C(C)C1 (stereo not drawn) + CCN1C(C(=O)NC23CCC(C(=O)O)(CC2)CC3)C(c2cccc(Cl)c2F)C2(C(=O)Nc3cc(Cl)ccc32)C12CCCCC2
IC50 (curve of first compound, second compound 0.03 µM): > 10000 nM | IC50 (curve of first compound, second compound 0.0949 µM): > 10000 nM | IC50 (curve of first compound, second compound 0.3 µM): > 10000 nM | IC50 (curve of first compound, second compound 0.949 µM): > 10000 nM | IC50 (curve of first compound, second compound 3 µM): 84.2 nM | viability, T/C (second compound 0.03 µM, first compound 0.0316 µM): 100% | viability, T/C (second compound 0.03 µM, first compound 0.1 µM): 96.3% | viability, T/C (second compound 0.03 µM, first compound 0.316 µM): 102% | viability, T/C (second compound 0.03 µM, first compound 1 µM): 102% | viability, T/C (second compound 0.03 µM, first compound 3.16 µM): 98.2% | viability, T/C (second compound 0.03 µM, first compound 10 µM): 101% | viability, T/C (second compound 0.0949 µM, first compound 0.0316 µM): 89.3% | viability, T/C (second compound 0.0949 µM, first compound 0.1 µM): 93.7% | viability, T/C (second compound 0.0949 µM, first compound 0.316 µM): 89.1% | viability, T/C (second compound 0.0949 µM, first compound 1 µM): 88.8% | viability, T/C (second compound 0.0949 µM, first compound 3.16 µM): 92.9% | viability, T/C (second compound 0.0949 µM, first compound 10 µM): 85.5% | viability, T/C (second compound 0.3 µM, first compound 0.0316 µM): 68.5% | viability, T/C (second compound 0.3 µM, first compound 0.1 µM): 64.5% | viability, T/C (second compound 0.3 µM, first compound 0.316 µM): 66.8% | viability, T/C (second compound 0.3 µM, first compound 1 µM): 69.2% | viability, T/C (second compound 0.3 µM, first compound 3.16 µM): 67.3% | viability, T/C (second compound 0.3 µM, first compound 10 µM): 68.7% | viability, T/C (second compound 0.949 µM, first compound 0.0316 µM): 61.7% | viability, T/C (second compound 0.949 µM, first compound 0.1 µM): 65% | viability, T/C (second compound 0.949 µM, first compound 0.316 µM): 65.5% | viability, T/C (second compound 0.949 µM, first compound 1 µM): 58.1% | viability, T/C (second compound 0.949 µM, first compound 3.16 µM): 60% | viability, T/C (second compound 0.949 µM, first compound 10 µM): 57.2% | viability, T/C (second compound 3 µM, first compound 0.0316 µM): 48.2% | viability, T/C (second compound 3 µM, first compound 0.1 µM): 49.8% | viability, T/C (second compound 3 µM, first compound 0.316 µM): 52.5% | viability, T/C (second compound 3 µM, first compound 1 µM): 50.3% | viability, T/C (second compound 3 µM, first compound 3.16 µM): 48.9% | viability, T/C (second compound 3 µM, first compound 10 µM): 45.6%

NC1CCC(NC2CC2c2ccccc2)CC1 (stereo not drawn) + Cc1c(S(C)(=O)=O)c(-c2cc(F)cc(N3CCN(c4ccc(NS(=O)(=O)c5ccc(NC(CCN6CCC(C(=O)OCCCP(=O)(O)O)CC6)CSc6ccccc6)c(S(=O)(=O)C(F)(F)F)c5)cc4)CC3)c2)c(-c2ccc(Cl)cc2)n1C(C)C
IC50 (curve of first compound, second compound 0.1 µM): > 100 nM | IC50 (curve of first compound, second compound 0.316 µM): > 100 nM | IC50 (curve of first compound, second compound 1 µM): > 100 nM | IC50 (curve of first compound, second compound 3.16 µM): < 0.316 nM | IC50 (curve of first compound, second compound 10 µM): < 0.316 nM | viability, T/C (second compound 0.1 µM, first compound 0.000316 µM): 85.7% | viability, T/C (second compound 0.1 µM, first compound 0.001 µM): 83% | viability, T/C (second compound 0.1 µM, first compound 0.00316 µM): 89% | viability, T/C (second compound 0.1 µM, first compound 0.01 µM): 85.8% | viability, T/C (second compound 0.1 µM, first compound 0.0316 µM): 83.2% | viability, T/C (second compound 0.1 µM, first compound 0.1 µM): 81.7% | viability, T/C (second compound 0.316 µM, first compound 0.000316 µM): 86.5% | viability, T/C (second compound 0.316 µM, first compound 0.001 µM): 79.6% | viability, T/C (second compound 0.316 µM, first compound 0.00316 µM): 78.3% | viability, T/C (second compound 0.316 µM, first compound 0.01 µM): 78.7% | viability, T/C (second compound 0.316 µM, first compound 0.0316 µM): 79.5% | viability, T/C (second compound 0.316 µM, first compound 0.1 µM): 79% | viability, T/C (second compound 1 µM, first compound 0.000316 µM): 73.5% | viability, T/C (second compound 1 µM, first compound 0.001 µM): 68.1% | viability, T/C (second compound 1 µM, first compound 0.00316 µM): 64.8% | viability, T/C (second compound 1 µM, first compound 0.01 µM): 62.5% | viability, T/C (second compound 1 µM, first compound 0.0316 µM): 61.8% | viability, T/C (second compound 1 µM, first compound 0.1 µM): 60.8% | viability, T/C (second compound 3.16 µM, first compound 0.000316 µM): 37.5% | viability, T/C (second compound 3.16 µM, first compound 0.001 µM): 40.5% | viability, T/C (second compound 3.16 µM, first compound 0.00316 µM): 36.6% | viability, T/C (second compound 3.16 µM, first compound 0.01 µM): 32% | viability, T/C (second compound 3.16 µM, first compound 0.0316 µM): 31.2% | viability, T/C (second compound 3.16 µM, first compound 0.1 µM): 34.7% | viability, T/C (second compound 10 µM, first compound 0.000316 µM): 24.5% | viability, T/C (second compound 10 µM, first compound 0.001 µM): 22.4% | viability, T/C (second compound 10 µM, first compound 0.00316 µM): 21.8% | viability, T/C (second compound 10 µM, first compound 0.01 µM): 24% | viability, T/C (second compound 10 µM, first compound 0.0316 µM): 20% | viability, T/C (second compound 10 µM, first compound 0.1 µM): 21.5%

CCN1C(C(=O)NC23CCC(C(=O)O)(CC2)CC3)C(c2cccc(Cl)c2F)C2(C(=O)Nc3cc(Cl)ccc32)C12CCCCC2 (stereo not drawn)
viability, T/C (compound 0.00949 µM): 106% and 100% | viability, T/C (compound 0.03 µM): 96.6% [middle of 15 runs] | IC50 (curve of compound): 965 nM and > 3000 nM
